Measured values published in PubChem BioAssay (NCI).
Where “and” joins values, the source holds several entries; their conditions need not be identical. Equal values may be shown once.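 Where inhibition never reached the appropriate level, the endpoint shown equals the highest concentration tested. Otherwise, values were interpolated linearly from a five-concentration, 48-hour dose response in 96-well plates. GI50: concentration for 50% inhibition of growth. TGI is the concentration that stops growth completely.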

Key:
Test in all cases: growth of human tumour cells (NCI), 48 h
786-0 renal = tested on: 786-0 renal
A498 renal = tested on: A498 renal
A549 NSCLC = tested on: A549 NSCLC
ACHN renal = tested on: ACHN renal
BT-549 breast = tested on: BT-549 breast
CAKI-1 renal = tested on: CAKI-1 renal
CCRF-CEM leukemia = tested on: CCRF-CEM leukemia
COLO 205 colon = tested on: COLO 205 colon
DU-145 prostate = tested on: DU-145 prostate
EKVX NSCLC = tested on: EKVX NSCLC
HCC-2998 colon = tested on: HCC-2998 colon
HCT-116 colon = tested on: HCT-116 colon
HCT-15 colon = tested on: HCT-15 colon
HL-60(TB) leukemia = tested on: HL-60(TB) leukemia
HOP-62 NSCLC = tested on: HOP-62 NSCLC
HOP-92 NSCLC = tested on: HOP-92 NSCLC
HS 578T breast = tested on: HS 578T breast
HT29 colon = tested on: HT29 colon
IGROV1 ovarian = tested on: IGROV1 ovarian
K-562 leukemia = tested on: K-562 leukemia
KM12 colon = tested on: KM12 colon
LOX IMVI melanoma = tested on: LOX IMVI melanoma
M14 melanoma = tested on: M14 melanoma
MALME-3M melanoma = tested on: MALME-3M melanoma
MCF7 breast = tested on: MCF7 breast
MDA-MB-231 breast = tested on: MDA-MB-231 breast
MDA-MB-435 = tested on: MDA-MB-435
MOLT-4 leukemia = tested on: MOLT-4 leukemia
NCI-H226 lung = tested on: NCI-H226 lung
NCI-H23 lung = tested on: NCI-H23 lung
NCI-H460 lung = tested on: NCI-H460 lung
NCI-H522 lung = tested on: NCI-H522 lung
NCI/ADR-RES ovarian = tested on: NCI/ADR-RES ovarian
OVCAR-3 ovarian = tested on: OVCAR-3 ovarian
OVCAR-4 ovarian = tested on: OVCAR-4 ovarian
OVCAR-5 ovarian = tested on: OVCAR-5 ovarian
OVCAR-8 ovarian = tested on: OVCAR-8 ovarian
PC-3 prostate = tested on: PC-3 prostate
RPMI-8226 leukemia = tested on: RPMI-8226 leukemia
RXF 393 renal = tested on: RXF 393 renal
SF-268 CNS = tested on: SF-268 CNS
SF-295 CNS = tested on: SF-295 CNS
SF-539 CNS = tested on: SF-539 CNS
SK-MEL-2 melanoma = tested on: SK-MEL-2 melanoma
SK-MEL-28 melanoma = tested on: SK-MEL-28 melanoma
SK-MEL-5 melanoma = tested on: SK-MEL-5 melanoma
SK-OV-3 ovarian = tested on: SK-OV-3 ovarian
SN12C renal = tested on: SN12C renal
SNB-19 CNS = tested on: SNB-19 CNS
SNB-75 CNS = tested on: SNB-75 CNS
SR leukemia = tested on: SR leukemia
SW-620 colon = tested on: SW-620 colon
T-47D breast = tested on: T-47D breast
TK-10 renal = tested on: TK-10 renal
U251 CNS = tested on: U251 CNS
UACC-257 melanoma = tested on: UACC-257 melanoma
UACC-62 melanoma = tested on: UACC-62 melanoma
UO-31 renal = tested on: UO-31 renal

Q: Which results are given for `CC1=C2C[C@H]3[C@@H](CC=C4C[C@@H](O)CC[C@@]43C)[C@@H]2CC[C@]12O[C@@H]1C[C@H](C)CN[C@H]1[C@H]2C`?
A: GI50 (786-0 renal): 15.5 µM and 17.3 µM; TGI (786-0 renal): 50 µM and 33.4 µM; GI50 (A498 renal): 43.2 µM and 19.4 µM; TGI (A498 renal): 50 µM and 37.9 µM; GI50 (A549 NSCLC): 16.8 µM and 17.5 µM; TGI (A549 NSCLC): 50 µM and 39.4 µM; GI50 (ACHN renal): 10.4 µM and 18.7 µM; TGI (ACHN renal): 22.3 µM and 41.4 µM; GI50 (BT-549 breast): 31 µM and 52.1 µM; TGI (BT-549 breast): 50 µM and > 100 µM; GI50 (CAKI-1 renal): 29.2 µM and 20 µM; TGI (CAKI-1 renal): 50 µM and 44.5 µM; GI50 (CCRF-CEM leukemia): 22.6 µM and 23.4 µM; TGI (CCRF-CEM leukemia): 50 µM and 80 µM; GI50 (COLO 205 colon): 13.6 µM and 4.28 µM; TGI (COLO 205 colon): 38.6 µM and 19.1 µM; GI50 (DU-145 prostate): 27.9 µM and 25.8 µM; TGI (DU-145 prostate): 50 µM and 61.6 µM; GI50 (EKVX NSCLC): 51.9 µM; TGI (EKVX NSCLC): > 100 µM; GI50 (HCC-2998 colon): 16.9 µM and 21.6 µM; TGI (HCC-2998 colon): 50 µM and 39.4 µM; GI50 (HCT-116 colon): 10.1 µM and 16.6 µM; TGI (HCT-116 colon): 24.7 µM and 31.8 µM; GI50 (HCT-15 colon): 12.6 µM and 22.3 µM; TGI (HCT-15 colon): 49.4 µM and > 100 µM; GI50 (HL-60(TB) leukemia): 11.5 µM and 15.7 µM; TGI (HL-60(TB) leukemia): 50 µM and 55.1 µM; GI50 (HOP-62 NSCLC): 17.8 µM and 24.5 µM; TGI (HOP-62 NSCLC): 50 µM and 68.6 µM; GI50 (HOP-92 NSCLC): 21.6 µM; TGI (HOP-92 NSCLC): 57.9 µM; GI50 (HS 578T breast): > 50 µM and 35 µM; TGI (HS 578T breast): > 100 µM; GI50 (HT29 colon): 26.2 µM; TGI (HT29 colon): 50 µM; GI50 (IGROV1 ovarian): 40.5 µM and 17.5 µM; TGI (IGROV1 ovarian): 50 µM and 38.9 µM; GI50 (K-562 leukemia): 9.4 µM and 15.9 µM; TGI (K-562 leukemia): 34.7 µM and 40.2 µM; GI50 (KM12 colon): 41.3 µM and 23.4 µM; TGI (KM12 colon): 50 µM and 54.7 µM; GI50 (LOX IMVI melanoma): 10.5 µM and 16.9 µM; TGI (LOX IMVI melanoma): 31.8 µM and 33.5 µM; GI50 (M14 melanoma): > 50 µM and 19.6 µM; TGI (M14 melanoma): > 50 µM and 44.1 µM; GI50 (MALME-3M melanoma): 19.3 µM and 17.6 µM; TGI (MALME-3M melanoma): 50 µM and 36 µM; GI50 (MCF7 breast): 29 µM and 23.7 µM; TGI (MCF7 breast): 50 µM and 55.9 µM; GI50 (MDA-MB-231 breast): 17.8 µM and 23.7 µM; TGI (MDA-MB-231 breast): 42.6 µM and 49.7 µM; GI50 (MDA-MB-435): > 50 µM and 17.2 µM; TGI (MDA-MB-435): > 50 µM and 42.1 µM; GI50 (MOLT-4 leukemia): 17.7 µM and 20.5 µM; TGI (MOLT-4 leukemia): 50 µM and 58.6 µM; GI50 (NCI-H226 lung): > 50 µM and 23.1 µM; TGI (NCI-H226 lung): > 50 µM and 55.3 µM; GI50 (NCI-H23 lung): 29 µM and 29.7 µM; TGI (NCI-H23 lung): 50 µM and > 100 µM; GI50 (NCI-H460 lung): 21.8 µM and 19.9 µM; TGI (NCI-H460 lung): 50 µM and 44.4 µM; GI50 (NCI-H522 lung): 13.6 µM and 21.2 µM; TGI (NCI-H522 lung): 44.7 µM and 39.7 µM; GI50 (NCI/ADR-RES ovarian): 38.5 µM and 20.3 µM; TGI (NCI/ADR-RES ovarian): 50 µM and 47.5 µM; GI50 (OVCAR-3 ovarian): 12.2 µM and 21 µM; TGI (OVCAR-3 ovarian): 42.8 µM and 43.2 µM; GI50 (OVCAR-4 ovarian): 32.1 µM and 18.8 µM; TGI (OVCAR-4 ovarian): 50 µM and 37.3 µM; GI50 (OVCAR-5 ovarian): 11.9 µM and 29.4 µM; TGI (OVCAR-5 ovarian): 50 µM and 89.6 µM; GI50 (OVCAR-8 ovarian): 11.6 µM and 20.2 µM; TGI (OVCAR-8 ovarian): 50 µM and 48.5 µM; GI50 (PC-3 prostate): 22.1 µM and 20.2 µM; TGI (PC-3 prostate): 50 µM and 59.6 µM; GI50 (RPMI-8226 leukemia): 8.84 µM and 18.1 µM; TGI (RPMI-8226 leukemia): 31.8 µM and 46.2 µM; GI50 (RXF 393 renal): 6.01 µM; TGI (RXF 393 renal): 27.9 µM and 12.3 µM; GI50 (SF-268 CNS): 21.2 µM and 23.7 µM; TGI (SF-268 CNS): 50 µM and 50.9 µM; GI50 (SF-295 CNS): 40.8 µM and 19 µM; TGI (SF-295 CNS): 50 µM and 40.2 µM; GI50 (SF-539 CNS): 21.3 µM and 20 µM; TGI (SF-539 CNS): 50 µM and 37.8 µM; GI50 (SK-MEL-2 melanoma): 12.3 µM and 23.4 µM; TGI (SK-MEL-2 melanoma): 38.4 µM and 51.6 µM; GI50 (SK-MEL-28 melanoma): > 50 µM and 48.5 µM; TGI (SK-MEL-28 melanoma): > 100 µM; GI50 (SK-MEL-5 melanoma): > 50 µM and 21.7 µM; TGI (SK-MEL-5 melanoma): > 50 µM and 53.5 µM; GI50 (SK-OV-3 ovarian): 14.2 µM and 13.9 µM; TGI (SK-OV-3 ovarian): 28.2 µM and 34.7 µM; GI50 (SN12C renal): 25.6 µM and 18.3 µM; TGI (SN12C renal): 50 µM and 47.4 µM; GI50 (SNB-19 CNS): 22.6 µM and 20.7 µM; TGI (SNB-19 CNS): 50 µM and 52.6 µM; GI50 (SNB-75 CNS): > 50 µM and 18.8 µM; TGI (SNB-75 CNS): > 50 µM and 42.7 µM; GI50 (SR leukemia): 3.42 µM; TGI (SR leukemia): 21.9 µM; GI50 (SW-620 colon): > 50 µM and 32.9 µM; TGI (SW-620 colon): > 100 µM; GI50 (T-47D breast): 13.3 µM and 16.7 µM; TGI (T-47D breast): 32.8 µM and 34.9 µM; GI50 (TK-10 renal): 7.17 µM and 14.2 µM; TGI (TK-10 renal): 25.9 µM and 34.1 µM; GI50 (U251 CNS): 7.96 µM and 18.6 µM; TGI (U251 CNS): 18.3 µM and 39.6 µM; GI50 (UACC-257 melanoma): 20.3 µM and 17.3 µM; TGI (UACC-257 melanoma): 50 µM and 33.1 µM; GI50 (UACC-62 melanoma): 24.6 µM and 21.1 µM; TGI (UACC-62 melanoma): 50 µM and 43.7 µM; GI50 (UO-31 renal): 11.5 µM and 19 µM; TGI (UO-31 renal): 35.9 µM and 37.2 µM
